Assay results taken from ChEMBL document CHEMBL5728011, “Bicyclic heterocyclic compound” (2020).

What follows are molecules tested against Kynurenine/alpha-aminoadipate aminotransferase, mitochondrial (Homo sapiens, UniProt Q8N5Z0) (assay: Inhibitory Assay: To a reaction mixture (45 μL) containing 3.0 μmol/L kynurenine, 10 μmol/L pyridoxal phosphate, 2.0 ng/μL human recombinant KAT-II, and 150 mmol/L tris(hydroxymethyl)aminomethane-acetate buffer (pH 8.0) was added a 10% dimethyl sulfoxide solution (5 μL) of each test compound prepared, and the mixture was reacted at 37° C. for 1 hr. After the reaction, 50% trichloroacetic acid (5 μL) was added to terminate the reaction.The resultant kynurenic acid was quantified as follows by high performance liquid chromatography. An enzyme reaction mixture was separated by an octadecylsilane reversed-phase column (SC-50DS, Eicom Corporation; mobile phase: 250 mmol/L zinc acetate, 50 mmol/L sodium acetate, and 5.0% acetonitrile (pH 6.2)) incubated at 30° C., and kynurenic acid was quantified using a fluorescence detector (RF-20Axs, Shimadzu Corporation) at excitation wavelength 354 nm, detection wavelength 460 nm. The analytical curve was drawn every time by an external standard method. Each test compound was tested by dual measurement at each concentration. The kynurenic acid level in the presence of a test compound at each concentration was converted into % relative to kynurenic acid resulting from a reaction with an enzyme alone as 100%, and the obtained values were fitted to S-curve to determine IC50.).
Kynurenine/alpha-aminoadipate aminotransferase, mitochondrial, sequence (Q8N5Z0 whole entry): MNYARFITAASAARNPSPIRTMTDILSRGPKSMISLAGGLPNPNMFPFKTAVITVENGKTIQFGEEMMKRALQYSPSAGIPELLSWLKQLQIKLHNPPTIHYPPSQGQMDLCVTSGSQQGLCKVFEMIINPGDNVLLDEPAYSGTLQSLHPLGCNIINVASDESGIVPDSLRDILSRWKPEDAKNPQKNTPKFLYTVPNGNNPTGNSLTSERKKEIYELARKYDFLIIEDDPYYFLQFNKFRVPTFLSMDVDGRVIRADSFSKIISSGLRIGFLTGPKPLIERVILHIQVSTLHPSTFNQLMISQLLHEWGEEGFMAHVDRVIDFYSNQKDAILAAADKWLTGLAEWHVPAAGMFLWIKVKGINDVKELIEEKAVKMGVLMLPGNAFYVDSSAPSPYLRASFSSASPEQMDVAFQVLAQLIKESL
`CC1(C)CN(c2ncnc3nc(N4CCC[C@@H]4C(=O)NCc4ccccc4)sc23)CCO1` gave an IC50 of 0.071 µM. `COCCc1nc(N(C)C)c2sc(N3CCC[C@@H]3C(=O)NCc3ccccc3)nc2n1` showed an IC50 of 0.064 µM. `Cc1nc(N(C)C)c2sc(N3CCC[C@@H]3C(=O)NCc3ccccc3)nc2n1` was tested, and the IC50 was 0.05 µM. In the case of `CN(C)c1nc(C(F)(F)F)nc2nc(N3CCC[C@@H]3C(=O)NCc3ccccc3)sc12`, the IC50 is reported as 0.027 µM. `COCCOc1ncnc2nc(N3CCC[C@@H]3C(=O)NCc3ccccc3)sc12` was tested, and the IC50 was 0.14 µM. For `O=C(NCc1ccccc1)[C@H]1CCCN1c1nc2ncnc(N3CCOCC3)c2s1`, the IC50 was 0.047 µM. `COCc1nc(N(C)C)c2sc(N3CCC[C@@H]3C(=O)NCc3ccccc3)nc2n1` gave an IC50 of 0.082 µM. For `CON(C)c1ncnc2nc(N3CCC[C@@H]3C(=O)NCc3ccccc3)sc12`, the IC50 was 0.035 µM.
